Earlier results in patent US20130116244A1, “PHAR[…] COMPOSITIONS” (AESICA FORMULATION DEVELOPMENT LIMITED, priority 2010, published 2013).

Columns and labels:
[1] = in vivo
[2] = not given; remark: listed apart in the source

SMILES | time after which anticonvulsant/sedative effects wear off (typically) | duration of anticonvulsant/sedative effects (effects can last for) | half life [1] | diazepam dose equal in effect to lorazepam 1 mg (relative potency) [2]
CN1C(=O)CN=C(c2ccccc2)c2cc(Cl)ccc21 [diazepam] | 15 to 30 min |  |  | 
O=C1Nc2ccc(Cl)cc2C(c2ccccc2Cl)=NC1O (stereo not shown) [lorazepam, 7-chloro-5-(2-chlorophenyl)-1,3-dihydro-3-hydroxy-2H-1,4-benzodiazepin-2-one] |  | 12 to 24 h | 10 to 20 h | 10 mg
